Reference: PubChem BioAssay AID212 (DTP/NCI, 2004)
“And” between values parts separate entries of the source, which are not always exact repeats. Equal entries are not always repeated. Results filed as inconclusive are left out. Where a SMILES comes first, the peptide text is derived from it. The star is where a group is joined. Trt = c1ccc(C(c2ccccc2)(c2ccccc2)*)cc1; Cbz = O=C(OCc1ccccc1)*; Bn = c1ccc(C*)cc1; βAla = NCCC(=O)O

System: BDF1 mice, colon carcinoma 38 sc, T/C %
Assay: NCI In Vivo Anticancer Drug Screen. Data for tumor model Colon Carcinoma 38 (subcutaneous) in B6D2F1 (BDF1) mice
In short: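 T/C readout: treated group (T) measurement over vehicle control group (C) measurement. Endpoint is survival or tumor size in mice bearing a transplanted tumor.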

[1] = endpoint: median tumor weight (est.), dose: 25.0 mg/kg/injection, schedule: Q07DX002 (ip), vehicle: Klucel (hydroxypropylcellulose) (HPC), higher = larger tumour
[2] = endpoint: median tumor weight (est.), dose: 50.0 mg/kg/injection, schedule: Q07DX002 (ip), vehicle: Klucel (hydroxypropylcellulose) (HPC), higher = larger tumour
[3] = endpoint: median tumor weight (est.), dose: 100.0 mg/kg/injection, schedule: Q07DX002 (ip), vehicle: Klucel (hydroxypropylcellulose) (HPC), higher = larger tumour
[4] = endpoint: median tumor weight (est.), dose: 200.0 mg/kg/injection, schedule: Q07DX002 (ip), vehicle: Klucel (hydroxypropylcellulose) (HPC), higher = larger tumour

**Q.** CC1(C)N=C(N)N=C(N)N1c1ccc(CCCCc2ccc(S(=O)(=O)F)cc2Cl)c(Cl)c1 was tested. Which T/C (endpoint: median survival time, dose: 35.0 mg/kg/injection, schedule: Q01DX013 (ip), vehicle: saline with Tween-80, higher = longer survival) did it give?
**A.** 117 % of control

**Q.** What about the T/C (endpoint: median survival time, dose: 92.0 mg/kg/injection, schedule: Q01DX013 (ip), vehicle: saline with Tween-80, higher = longer survival) of the same molecule?
**A.** 157 % of control

**Q.** And the T/C (endpoint: median tumor weight (est.), dose: 6.25 mg/kg/injection, schedule: Q07DX002 (ip), vehicle: saline, higher = larger tumour)?
**A.** 44 % of control

**Q.** And the T/C (endpoint: median tumor weight (est.), dose: 50.0 mg/kg/injection, schedule: Q07DX002 (ip), vehicle: saline, higher = larger tumour)?
**A.** 78 % of control

**Q.** What about the T/C (endpoint: median tumor weight (est.), dose: 200.0 mg/kg/injection, schedule: Q07DX002 (ip), vehicle: saline, higher = larger tumour) of the same molecule?
**A.** 1 % of control and 24 % of control and 26 % of control

**Q.** For c1ccc([P+](c2ccccc2)(c2ccccc2)c2ccccc2)cc1, which T/C (endpoint: median tumor weight (est.), dose: 0.75 mg/kg/injection, schedule: Q07DX002 (ip), vehicle: saline, higher = larger tumour) is on record?
**A.** 91 % of control

**Q.** What about the T/C (endpoint: median tumor weight (est.), dose: 0.75 mg/kg/injection, schedule: Q07DX003 (ip), vehicle: saline, higher = larger tumour) of the same molecule?
**A.** 84 % of control

**Q.** What about the T/C (endpoint: median tumor weight (est.), dose: 1.5 mg/kg/injection, schedule: Q07DX002 (ip), vehicle: saline, higher = larger tumour) of the same molecule?
**A.** 95 % of control

**Q.** What about the T/C (endpoint: median tumor weight (est.), dose: 1.5 mg/kg/injection, schedule: Q07DX003 (ip), vehicle: saline, higher = larger tumour) of the same molecule?
**A.** 83 % of control

**Q.** And the T/C (endpoint: median tumor weight (est.), dose: 3.0 mg/kg/injection, schedule: Q07DX002 (ip), vehicle: saline, higher = larger tumour)?
**A.** 77 % of control

**Q.** And the T/C (endpoint: median tumor weight (est.), dose: 3.0 mg/kg/injection, schedule: Q07DX003 (ip), vehicle: saline, higher = larger tumour)?
**A.** 69 % of control

**Q.** And the T/C (endpoint: median tumor weight (est.), dose: 6.0 mg/kg/injection, schedule: Q07DX002 (ip), vehicle: saline, higher = larger tumour)?
**A.** 112 % of control

**Q.** And the T/C (endpoint: median tumor weight (est.), dose: 6.0 mg/kg/injection, schedule: Q07DX003 (ip), vehicle: saline, higher = larger tumour)?
**A.** 66 % of control

**Q.** COC(=O)C(CSC(c1ccccc1)(c1ccccc1)c1ccccc1)NC(=O)C(CSCc1ccccc1)NC(=O)CCNC(=O)OCc1ccccc1 (centres undefined) ({Cbz-βAla}-Cys(Bn)-Cys(Trt)-OMe; configuration not given here) was tested. Which T/C [1] did it give?
**A.** 106 % of control

**Q.** What about the T/C [2] of the same molecule?
**A.** 109 % of control

**Q.** What about the T/C [3] of the same molecule?
**A.** 96 % of control

**Q.** And the T/C [4]?
**A.** 87 % of control

**Q.** And the T/C (endpoint: median tumor weight (est.), dose: 400.0 mg/kg/injection, schedule: Q07DX002 (ip), vehicle: Klucel (hydroxypropylcellulose) (HPC), higher = larger tumour)?
**A.** 123 % of control

**Q.** Which results are given for CC[C@@]1(O)C[C@H](OC2CC(N(C)C)C(OC3CC(O)C(OC4CC(O)C(O)C(C)O4)C(C)O3)C(C)O2)c2c(cc3c(c2O)C(=O)c2c(O)ccc(O)c2C3=O)[C@H]1C(=O)OC (some centres undefined)?
**A.** T/C (endpoint: median tumor weight (est.), dose: 1.5 mg/kg/injection, schedule: Q07DX003 (ip), vehicle: Klucel (hydroxypropylcellulose) (HPC), higher = larger tumour): 95 % of control; T/C (endpoint: median tumor weight (est.), dose: 3.0 mg/kg/injection, schedule: Q07DX003 (ip), vehicle: Klucel (hydroxypropylcellulose) (HPC), higher = larger tumour): 72 % of control

**Q.** C[C@]12C=CC(=O)C=C1CC[C@@H]1[C@@H]2C(=O)C[C@@]2(C)[C@H]1CC[C@]2(O)C(=O)CO was tested. Which T/C (endpoint: median tumor weight (est.), dose: 12.5 mg/kg/injection, schedule: Q07DX002 (ip), vehicle: Klucel (hydroxypropylcellulose) (HPC), higher = larger tumour) did it give?
**A.** 108 % of control

**Q.** And the T/C [1]?
**A.** 115 % of control

**Q.** And the T/C (endpoint: median tumor weight (est.), dose: 25.0 mg/kg/injection, schedule: Q07DX003 (ip), vehicle: Klucel (hydroxypropylcellulose) (HPC), higher = larger tumour)?
**A.** 97 % of control

**Q.** And the T/C [2]?
**A.** 93 % of control and 102 % of control

**Q.** What about the T/C (endpoint: median tumor weight (est.), dose: 50.0 mg/kg/injection, schedule: Q07DX003 (ip), vehicle: Klucel (hydroxypropylcellulose) (HPC), higher = larger tumour) of the same molecule?
**A.** 100 % of control

**Q.** What about the T/C [3] of the same molecule?
**A.** 110 % of control

**Q.** What about the T/C (endpoint: median tumor weight (est.), dose: 100.0 mg/kg/injection, schedule: Q07DX003 (ip), vehicle: Klucel (hydroxypropylcellulose) (HPC), higher = larger tumour) of the same molecule?
**A.** 76 % of control

**Q.** And the T/C [4]?
**A.** 81 % of control and 101 % of control

**Q.** And the T/C (endpoint: median tumor weight (est.), dose: 200.0 mg/kg/injection, schedule: Q07DX003 (ip), vehicle: Klucel (hydroxypropylcellulose) (HPC), higher = larger tumour)?
**A.** 88 % of control

**Q.** And the T/C (endpoint: median tumor weight (est.), dose: 400.0 mg/kg/injection, schedule: Q07DX003 (ip), vehicle: Klucel (hydroxypropylcellulose) (HPC), higher = larger tumour)?
**A.** 45 % of control

**Q.** What about the T/C (endpoint: median tumor weight (est.), dose: 800.0 mg/kg/injection, schedule: Q07DX002 (ip), vehicle: Klucel (hydroxypropylcellulose) (HPC), higher = larger tumour) of the same molecule?
**A.** 60 % of control

**Q.** And the T/C (endpoint: median tumor weight (est.), dose: 1200.0 mg/kg/injection, schedule: Q07DX002 (ip), vehicle: Klucel (hydroxypropylcellulose) (HPC), higher = larger tumour)?
**A.** 80 % of control

**Q.** How did the T/C (endpoint: median tumor weight (est.), dose: 25.0 mg/kg/injection, schedule: Q01DX005 (ip), vehicle: saline, higher = larger tumour) turn out when COc1cc(C[C@H]2c3cc(OC)c(OC)cc3CCN2C)c(Oc2cc3c(cc2OC)-c2c(OC)c(OC)cc4c2[C@H](C3)N(C)CC4)cc1OC was run?
**A.** 59 % of control

**Q.** What about the T/C (endpoint: median tumor weight (est.), dose: 25.0 mg/kg/injection, schedule: Q04DX003 (ip), vehicle: saline, higher = larger tumour) of the same molecule?
**A.** 116 % of control

**Q.** And the T/C (endpoint: median tumor weight (est.), dose: 50.0 mg/kg/injection, schedule: Q01DX005 (ip), vehicle: saline, higher = larger tumour)?
**A.** 198 % of control

**Q.** And the T/C (endpoint: median tumor weight (est.), dose: 50.0 mg/kg/injection, schedule: Q04DX003 (ip), vehicle: saline, higher = larger tumour)?
**A.** 60 % of control

**Q.** What about the T/C (endpoint: median tumor weight (est.), dose: 100.0 mg/kg/injection, schedule: Q01DX005 (ip), vehicle: saline, higher = larger tumour) of the same molecule?
**A.** 64 % of control

**Q.** And the T/C (endpoint: median tumor weight (est.), dose: 100.0 mg/kg/injection, schedule: Q04DX003 (ip), vehicle: saline, higher = larger tumour)?
**A.** 76 % of control

**Q.** What about the T/C (endpoint: median tumor weight (est.), dose: 200.0 mg/kg/injection, schedule: Q01DX005 (ip), vehicle: saline, higher = larger tumour) of the same molecule?
**A.** 36 % of control
